The text below walks through data of ChEMBL document CHEMBL4715760, “Balancing potency, metabolic stability and permeability in pyrrolopyrimidine-based EGFR inhibitors” (Eur J Med Chem, 2016).

Data set [1] can be described thus: Protein binding in plasma (unknown origin) assessed as unbound fraction at 5 uM by LC-MS/MS based equilibrium dialysis analysis.
Data set [2] can be described thus: Metabolic stability in pooled human liver microsomes assessed as Clearance at 3 uM measured up to 45 mins in presence of NADPH by LC-MS/MS analysis. Type of data set: ADME, Microsome. To be noted: pooled liver microsomes, read-out: CLH.
The target in data set [3] is MAP kinase-activated protein kinase 2 (Homo sapiens) (UniProt P49137). The experiment in a line: Inhibition of recombinant human His-tagged full length MAPKAPK2 expressed in Escherichia coli expression system at 500 nM using Ser/Thr 04 as substrate incubated for 1 hr in presence of ATP at its Km concentration by Z'-LYTE assay relative to control.
Chain of MAP kinase-activated protein kinase 2 (Homo sapiens) (P49137 whole entry, looked up): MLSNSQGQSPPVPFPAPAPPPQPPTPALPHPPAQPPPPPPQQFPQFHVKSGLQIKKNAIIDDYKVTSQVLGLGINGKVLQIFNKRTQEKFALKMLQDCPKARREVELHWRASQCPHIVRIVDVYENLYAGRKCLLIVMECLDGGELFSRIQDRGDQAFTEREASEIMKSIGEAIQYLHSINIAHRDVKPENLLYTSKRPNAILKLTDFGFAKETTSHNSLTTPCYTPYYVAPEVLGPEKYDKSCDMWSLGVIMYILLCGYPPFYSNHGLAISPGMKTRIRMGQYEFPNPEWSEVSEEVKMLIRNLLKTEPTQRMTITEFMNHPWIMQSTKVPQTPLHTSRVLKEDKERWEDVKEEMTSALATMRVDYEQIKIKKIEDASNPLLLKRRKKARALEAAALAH

Turning to `C#Cc1cccc(Nc2ncnc3cc(OCCOC)c(OCCOC)cc23)c1` [ERLOTINIB], the fraction unbound at 5 µM in data set [1] turned out to be 0.117. For the same molecule, in data set [2], the microsomal CLint at 3 µM turned out to be 43.8 µL/min/mg. Moreover, in data set [3], the inhibition is -1%.
